From ChEMBL document CHEMBL4715742, “Design, synthesis and cytotoxic activities of novel 2,5-diketopiperazine derivatives” (Eur J Med Chem, 2016) come the findings set out here.

pIC50: −log10 of the molar value.

One experiment relates to HL-60. Briefly: Cytotoxicity against human HL-60 cells assessed as reduction in cell viability measured after 72 hrs by CCK8 assay. It counts as functional, cell-based. As to conditions: Homo sapiens, HL-60, 72 h; read-out: IC50. A general note: Tetrazolium dyes change colour on reduction, which living cells bring about.
The subject of experiment [1] is U-937. Briefly: Induction of apoptosis in human U-937 cells assessed as necrotic cells at 1 uM measured after 24 hrs by annexinV/FITC-propidium iodide staining based flow cytometry (reference value: 1.12 to 1.48 %). It counts as functional. Background: In flow cytometry, cells or beads pass a laser one at a time.
For a further experiment, the system named is A549. As to the kind of experiment: Cytotoxicity against human A549 cells assessed as reduction in cell viability measured after 72 hrs by CCK8 assay. It counts as functional, cell-based. As to conditions: Homo sapiens, A549, 72 h; read-out: IC50.
Experiment [2] deals with U-937. As to the kind of experiment: Induction of apoptosis in human U-937 cells assessed as early apoptotic cells at 0.5 uM measured after 24 hrs by annexinV/FITC-propidium iodide staining based flow cytometry (reference value: 1.28 to 1.68 %). It counts as functional.
Experiment [3] concerns K562. Briefly: Cytotoxicity against human K562 cells assessed as cell viability at 0.37 uM measured after 48 hrs by CCK8 assay relative to control. As to conditions: read-out: Activity. It counts as functional.
Experiment [4] deals with K562. As to the kind of experiment: Cytotoxicity against human K562 cells assessed as cell viability at 0.37 uM measured after 72 hrs by CCK8 assay relative to control. It counts as functional. As to conditions: read-out: Activity.
The subject of experiment [5] is U-937. As to the kind of experiment: Cytotoxicity against human U-937 cells assessed as cell viability at 1.1 uM measured after 48 hrs by CCK8 assay relative to control. It counts as functional. To be noted: read-out: Activity.
Experiment [6] has as its system U-937. Briefly: Induction of apoptosis in human U-937 cells assessed as late apoptotic cells at 0.5 uM measured after 48 hrs by annexinV/FITC-propidium iodide staining based flow cytometry (reference value: 3.27 to 3.41 %). It counts as functional.
Experiment [7] concerns U-937. As to the kind of experiment: Induction of apoptosis in human U-937 cells assessed as late apoptotic cells at 1 uM measured after 24 hrs by annexinV/FITC-propidium iodide staining based flow cytometry (reference value: 2.18 to 2.22 %). It counts as functional.
The test system of experiment [8] is U-937. As to the kind of experiment: Cytotoxicity against human U-937 cells assessed as cell viability at 3.3 uM measured after 48 hrs by CCK8 assay relative to control. It counts as functional. To be noted: read-out: Activity.
The test system of experiment [9] is U-937. As to the kind of experiment: Induction of apoptosis in human U-937 cells assessed as early apoptotic cells at 1 uM measured after 24 hrs by annexinV/FITC-propidium iodide staining based flow cytometry (reference value: 1.28 to 1.68 %). It counts as functional.
Experiment [10] has as its system U-937. As to the kind of experiment: Induction of apoptosis in human U-937 cells assessed as necrotic cells at 2 uM measured after 24 hrs by annexinV/FITC-propidium iodide staining based flow cytometry (reference value: 1.12 to 1.48 %). It counts as functional.
Experiment [11] relates to K562. Briefly: Cytotoxicity against human K562 cells assessed as reduction in cell viability measured after 72 hrs by CCK8 assay. It counts as functional, cell-based. As to conditions: Homo sapiens, K562, 72 h; read-out: IC50.
The test system of experiment [12] is K562. As to the kind of experiment: Cytotoxicity against human K562 cells assessed as reduction in cell viability at 0.37 to 3.3 uM by CCK8 assay. It counts as functional, cell-based. To be noted: dose 0.37-3.3 µM, time 24-72 hrs, TDE = time-dependent effect.
For experiment [13], the system named is U-937. Briefly: Induction of apoptosis in human U-937 cells assessed as late apoptotic cells at 2 uM measured after 24 hrs by annexinV/FITC-propidium iodide staining based flow cytometry (reference value: 2.18 to 2.22 %). It counts as functional.
Experiment [14] has as its system U-937. Briefly: Induction of apoptosis in human U-937 cells assessed as necrotic cells at 2 uM measured after 48 hrs by annexinV/FITC-propidium iodide staining based flow cytometry (reference value: 0.794 to 0.955 %). It counts as functional.
For experiment [15], the system named is U-937. As to the kind of experiment: Cytotoxicity against human U-937 cells assessed as cell viability at 0.37 uM measured after 48 hrs by CCK8 assay relative to control. It counts as functional. As to conditions: read-out: Activity.
Experiment [16] concerns U-937. Briefly: Induction of apoptosis in human U-937 cells assessed as early apoptotic cells at 1 uM measured after 48 hrs by annexinV/FITC-propidium iodide staining based flow cytometry (reference value: 1.78 to 1.88 %). It counts as functional.
Experiment [17] relates to U-937. Briefly: Induction of apoptosis in human U-937 cells assessed as apoptotic ratio at 0.5 uM measured after 48 hrs by annexinV/FITC-propidium iodide staining based flow cytometry (reference value: 5.2 +/- 0.2 %). It counts as functional.
Experiment [18] deals with U-937. Briefly: Induction of apoptosis in human U-937 cells assessed as viable cells at 1 uM measured after 24 hrs by annexinV/FITC-propidium iodide staining based flow cytometry (reference value: 95 to 95.1 %). It counts as functional. As to conditions: read-out: Activity.
The subject of experiment [19] is U-937. Briefly: Induction of apoptosis in human U-937 cells assessed as necrotic cells at 0.5 uM measured after 24 hrs by annexinV/FITC-propidium iodide staining based flow cytometry (reference value: 1.12 to 1.48 %). It counts as functional.
Experiment [20] relates to K562. Briefly: Cytotoxicity against human K562 cells assessed as cell viability at 1.1 uM measured after 48 hrs by CCK8 assay relative to control. As to conditions: read-out: Activity. It counts as functional.

For `C=CCn1c(=O)/c(=C/CCCC)[nH]c(=O)/c1=C/c1ccc(OC)cc1`, the results for the pIC50 with HL-60, in the experiment with A549 and in the experiment on K562 [11] were 6.05, 5.77 and 6.22, respectively. For the same compound, the Activity in the experiment with U-937 [1] is listed as 1.13%; in the experiment on U-937 [2], 4.09%; in the experiment on U-937 [6] it was 8.32%; in the experiment with U-937 [7] it was 8.23%; in the experiment on U-937 [9], 7.63%; with U-937 [10] it was 1.22%. For the same compound, the Activity entry in the experiment with K562 [12] is “Tde”; in the experiment on U-937 [13], 10.3%; with U-937 [14] it was 1.26%; with U-937 [16] it was 10.8%; in the experiment with U-937 [17], 16.7%; in the experiment on U-937 [19], 1.07%. Besides, the viability at 0.37 µM was 90.9% in the experiment with K562 [3], 86.2% with K562 [4] and 74.9% in the experiment with U-937 [15]. Further, the figures for the viability at 1.1 µM with U-937 [5] and in the experiment with K562 [20] were 8.8% and 28.7%, respectively. In the experiment on U-937 [8], the viability at 3.3 µM is 0%. Besides, the viability at 1 µM with U-937 [18] was determined as 82.6%.
